One data set concerns Caco-2 cells. Kind of data set: Lactate dehydrogenase (LDH) cytotoxicity assay, Caco-2. The note with it: 100 µM, 24 h. In kind it is cell-based, human. As for the experimental part: (§1) The selected 10 AI-2 inhibitors were evaluated for their toxicity to Caco-2 (ATCC® HTB-37™) using LDH assay. Briefly, Caco-2 cells (1.4 × 10^5 cells/well) were grown in a 96-well plate in minimal essential medium (MEM) supplemented with 20% fetal bovine serum (FBS; Gibco), 1% non-essential amino acid (NEAA, Invitrogen Life Technologies) and 1mM sodium pyruvate, at 37 °C in a humidified 5% CO2 incubator for 48 h until a complete monolayer was formed. For LDH assay, cells were washed twice with media containing no FBS/no antibiotics and incubated with 150 µL of fresh media containing 100 μM of each compound at 37 °C for 24 h in a humidified 5% CO2 incubator. Fifty microliters of supernatant was analyzed using LDH Cytotoxicity Assay Kit (Thermo Scientific).

A further data set deals with G. mellonella larvae. In words: Toxicity of SMs in wax moth larvae. In kind it is in vivo, Galleria mellonella. To be noted: uninfected larvae, 12.5 µg/larva (50 mg/kg), 72 h. On the procedure:
To confirm that the death of the larvae was not due to the compounds, intrinsic toxicity the AI-2 inhibitors were assessed in a separate experiment. G. mellonella larvae (fifth instar; n = 10) were inoculated with 8.5 µL of SMs (50 mg/kg body weight; 12.5 µg/ larva) into the hemocoel via the last left proleg. Post inoculation, larvae were placed inside sterile petri dishes and incubated in the dark at 37 °C for 72 h and larval survival was monitored every 24 h. Two independent experiments were conducted

The subject of the next data set is APEC O78 in HD-11 cells. Kind of data set: Intracellular survival assay, APEC O78 in HD-11 cells. Format: cell-based, avian pathogenic E. coli (APEC) O78. The note with it: MOI 100, 100 µM, 6 h; for reduction of intracellular survival of APEC O78: vs DMSO treated control. As for the experimental part:
(§2) The effect of the selected AI-2 inhibitors on the survival of APEC in macrophage cells was tested as described before. Briefly, HD-11 cells was grown as described above and infected with 1 × 10^7 CFU (MOI = 100) of mid-log phase APEC strains (O78, O1 and O2) at 37 °C for 1 h. Cells were washed with PBS and treated with gentamicin (150 μg/mL) for 1 h to kill the extracellular bacteria. The cells were then washed and incubated with 100 µM of each compound in media containing 10 μg/mL of gentamicin at 37 °C for 6 h. Following treatment, cells were washed, lysed with 0.1% Triton X-100 for 5 min, ten-fold serially diluted in PBS and plated on LB agar plates to determine CFUs. Cells treated with chloramphenicol (40 μg/mL) and 1 μL of 100% DMSO were used as controls. The experiment was conducted two times with four replicates in each experiment. Intracellular survival was expressed as the log change of APEC CFUs in the AI-2 inhibitors treated cells.

For the next data set, the system named is APEC O1 in THP-1 cells. In words: Intracellular survival assay, APEC O1 in THP-1 cells. Format: cell-based, avian pathogenic E. coli (APEC) O1. The note with it: MOI 100, 100 µM, 6 h, vs DMSO treated control. On the procedure: as §2
(§3) Similarly, the intracellular survival assay was also performed in THP-1 cells (ATCC® TIB-202™) as described above. The THP-1 cells were grown in RPMI 1640 medium (Gibco) supplemented with 10% FBS and 2 mM glutamine. In order to differentiate the THP-1 monocyte to macrophage, 100 nM phorbol myristate acetate (PMA; Sigma-Aldrich) was added to the media. The cells (1.4 × 10^5 cells/well) were grown in a 96-well plate in a 5% CO2 incubator at 37 °C for 48 h, infected with APEC (MOI = 100), treated with each compound and the intracellular bacteria was determined as above.

The subject of data set [1] is AI-2 activity of APEC O78. Kind of data set: AI-2 bioluminescence indicator assay (V. harveyi BB170), APEC O78 supernatant. In kind it is cell-based, avian pathogenic E. coli (APEC) O78. The note with it: Escherichia coli, read-out: AI-2-associated bioluminescence inhibition.
The next data set deals with APEC O2 in THP-1 cells. In words: Intracellular survival assay, APEC O2 in THP-1 cells. Format: cell-based, avian pathogenic E. coli (APEC) O2. The note with it: MOI 100, 100 µM, 6 h; for reduction of intracellular survival of APEC O2: vs DMSO treated control. As for the experimental part: as §2, §3
A further data set concerns APEC O78 in THP-1 cells. Kind of data set: Intracellular survival assay, APEC O78 in THP-1 cells. Format: cell-based, avian pathogenic E. coli (APEC) O78. To be noted: MOI 100, 100 µM, 6 h, vs DMSO treated control. As for the experimental part: as §2
Similarly, the intracellular survival assay was also performed in THP-1 cells (ATCC® TIB-202™) as described above. The THP-1 cells were grown in RPMI 1640 medium (Gibco) supplemented with 10% FBS and 2 mM glutamine. […] The cells (1.4 × 10^5 cells/well) were grown in a 96-well plate in a 5% CO2 incubator at 37 °C for 48 h, infected with APEC (MOI = 100), treated with each compound and the intracellular bacteria was determined as above.

The next data set concerns APEC O1 in HD-11 cells. Kind of data set: Intracellular survival assay, APEC O1 in HD-11 cells. In kind it is cell-based, avian pathogenic E. coli (APEC) O1. The note with it: MOI 100, 100 µM, 6 h; for reduction of intracellular survival of APEC O1: vs DMSO treated control. As for the experimental part: as §2
The next data set relates to chicken RBCs. The note with it: 1 h, 100 µM.
For the next data set, the system named is sheep RBCs. The note with it: 1 h, 100 µM.
The subject of the next data set is HD-11 cells. Kind of data set: Lactate dehydrogenase (LDH) cytotoxicity assay, HD-11. In kind it is cell-based, chicken. The note with it: 100 µM, 24 h. On the procedure:
as §1
Toxicity was also determined on HD-11 cells (CVCL-4685). The HD-11 cells (1.4 × 10^5 cells/well) were grown in Iscove’s modified Dulbecco’s medium (IMEM; Gibco) supplemented with 2 mM glutamine and 10% FBS at 37 °C in a humidified 5% CO2 for 48 h until a monolayer was completely formed. LDH assay was conducted as described above.

Procedure for chicken RBCs: (§4) The hemolytic activity of the selected AI-2 inhibitors was determined as described before [56]. Briefly, 200 µL of the 10% RBCs (LAMPIRE Biological Laboratories) suspension in PBS was incubated with 100 μM of each compound for 1 h in a 96-well plate. The plate was then centrifuged at 5000 × g for 5 min, placed on ice for 5 min and the absorbance of the supernatant was measured at 540 nm. PBS, 1% DMSO, and 0.1% Triton X-100 were used as controls. Two independent experiments were conducted in triplicate wells in each experiment.
Procedure for sheep RBCs: as §4

For the molecule `O=[N+]([O-])c1cccc(S(=O)(=O)Nc2ccc(Br)cc2)c1` [C6, N-(4-bromophenyl)-3-nit robenzenesulfonamide], the “cytotoxicity (LDH release)” value with Caco-2 cells is recorded as 27%. Moreover, the “survival of larvae treated with compound (toxicity)” value in the data set with G. mellonella larvae worked out at 100%.
In the case of `Fc1ccc(CN2CCCN(Cc3nc(-c4ccc(C(F)(F)F)cc4)no3)CC2)cc1` [C9, 1-(4-fluorobenzyl)-4-({3-[4-(trifluoromethyl)phenyl]-1,2,4-oxadiazol-5-yl}methyl)-1,4-diazepane], in the data set on APEC O78 in HD-11 cells, the “clearance of intracellular APEC O78” value is reported as 100% and the “reduction of intracellular survival of APEC O78” value (from here on “reduction … of APEC O78”) is ~ 4 logs. Also, the “reduction of intracellular survival of APEC O1” value (from here on “reduction … of APEC O1”) with APEC O1 in THP-1 cells was “up to 0.9 log”. Further, in [1], the inhibition at 50 µM came out at 25%. Also, in the data set with APEC O2 in THP-1 cells, the “clearance of intracellular APEC O2” value worked out at 100% and the “reduction of intracellular survival of APEC O2” value was determined as 4 logs.
`CS/C(N)=N/N=C/c1cc(C)ccc1O` [C4, methyl N'-(2-hydroxy-5-methylbenzylidene)h ydrazonothiocarbamate]: in the data set with APEC O78 in HD-11 cells, the “reduction … of APEC O78” value is listed as “up to 1 logs”. Moreover, the “cytotoxicity (LDH release)” value in the data set on Caco-2 cells amounted to 12%.
With `OCCC1CN(C2CCN(c3ccccc3)CC2)CCN1CCCc1ccccc1` (stereo not shown) [C10, 2-[4-(1-phenyl-4-piperidinyl)-1-(3-phenylpropyl)-2-piperazinyl]ethanol], in the data set on APEC O78 in HD-11 cells, the “clearance of intracellular APEC O78” value is 100% and the “reduction … of APEC O78” value is ~ 4 logs. For the same molecule, the “reduction … of APEC O1” value in the data set with APEC O1 in THP-1 cells was “up to 0.9 log”. In the data set on APEC O78 in THP-1 cells, the “reduction … of APEC O78” value is reported as “up to 0.7 logs”. In addition, the “reduction … of APEC O1” value in the data set with APEC O1 in HD-11 cells is “up to 0.9 logs”. Besides, in the data set on Caco-2 cells, the “cytotoxicity (LDH release)” value came to 27%. Also, the inhibition at 50 µM in data set [1] turned out to be 25%. Besides, in the data set on APEC O2 in THP-1 cells, the “clearance of intracellular APEC O2” value was 100% and the “reduction of intracellular survival of APEC O2” value was found to be 4 logs.
`NC(=O)c1ccccc1Nc1cccc(C(F)(F)F)c1` [C3, 2-{[3-(trifluoromethyl)phenyl]amino}benzamide]: the “reduction … of APEC O1” value is reported as “up to 0.9 log” in the data set with APEC O1 in THP-1 cells and ~ 4 logs with APEC O1 in HD-11 cells. For the same molecule, the “clearance of intracellular APEC O1” value in the data set with APEC O1 in HD-11 cells was determined as 100%. The hemolytic activity with chicken RBCs turned out to be 6.4%; with sheep RBCs, 20.6%.
Turning to `O=C(CCN1CCN(c2ccccc2F)CC1)Nc1ccc(Br)cc1` [C7, N-(4-bromophenyl)-3-[4-(2-fluorophenyl)-1-piperazinyl]propanamide], the inhibition at 50 µM in data set [1] was 25%.
For `COCCN1CCC(CN(Cc2ccncc2)Cc2ccccc2Cl)CC1` [C1, (2-chlorobenzyl){[1-(2-methoxyethyl)-4-piperidinyl]methyl}(4-pyridinylmethyl)amine], the “reduction … of APEC O1” value in the data set with APEC O1 in THP-1 cells was “up to 0.9 log”. Moreover, the “survival of larvae treated with compound (toxicity)” value in the data set on G. mellonella larvae came to 100%.
With `CCc1ccccc1Nc1nc(-c2c(C)nc3ccccn23)cs1` [C8, N-(2-ethylphenyl)-4-(2-methylimidazo[1,2-a]pyridin-3-yl)-1,3-thiazol-2-amine], in the data set with APEC O78 in HD-11 cells, the “reduction … of APEC O78” value is given as “up to 1 logs”. In addition, the “cytotoxicity (LDH release)” value in the data set on Caco-2 cells was 2%; in the data set on HD-11 cells, “less than 10%”.
As to `Cc1ccc(CN2CCN(CCCc3ccccc3)CC2)cc1` [C5, 1-(4-methylbenzyl)-4-(3-phenylpropyl)piperazine], in the data set with HD-11 cells, the “cytotoxicity (LDH release)” value was “less than 10%”.

By inhibition is commonly meant the percentage by which the read-out fell short of the control.
